# Laboratory results reported in US20250101039A1, “RIFAMYCIN DERIVATIVES FOR THE TREATMENT OF DISEASES” (priority 2022, published 2025).
# Several values for one entry are separate records, joined by “and”; a condition that tells them apart may be missing. Identical values can stand only once. Like-named read-outs stand apart in the source and are kept apart here.
# Assays:
# A. baumannii = assay: MIC by broth microdilution, A. baumannii (WT); format: cell-based, Acinetobacter baumannii; conditions: for MIC A. baumannii: RPMI medium supplemented with 10% FCS, 35° C. 20 hours; for A. baumannii MIC, WT: Table 4, RPMI + FCS
# [1] = tested on: Enterococcus faecium (strain NCTC 12204); assay: MIC by broth microdilution, E. faecium; format: cell-based; conditions: strain NCTC 12204, cation adjusted Mueller Hinton broth
# [2] = tested on: Enterococcus faecalis (strain ATCC 51575); assay: MIC by broth microdilution, E. faecalis; format: cell-based; conditions: strain ATCC 51575, cation adjusted Mueller Hinton broth
# [3] = tested on: Staphylococcus epidermidis (strain ATCC 12228); assay: MIC by broth microdilution, S. epidermidis; format: cell-based; conditions: strain ATCC 12228, cation adjusted Mueller Hinton broth
# [4] = tested on: S. pneumoniae (strain ATCC 49619); assay: MIC by broth microdilution, S. pneumoniae; format: cell-based, Streptococcus pneumoniae; conditions: strain ATCC 49619, cation adjusted Mueller Hinton broth + 5% laked horse blood
# [5] = tested on: S. pyogenes (strain IHMA 1117021); assay: MIC by broth microdilution, S. pyogenes; format: cell-based, Streptococcus pyogenes; conditions: strain IHMA 1117021, cation adjusted Mueller Hinton broth + 5% laked horse blood
# [6] = tested on: H. influenzae (strain ATCC 49247); assay: MIC by broth microdilution, H. influenzae; format: cell-based, Hemophilus influenzae; conditions: strain ATCC 49247, Hemophilus test medium broth
# [7] = tested on: M. abscessus (strain ATCC 19977); assay: MIC by broth microdilution, M. abscessus; format: cell-based, Mycobacterium abscessus; conditions: strain ATCC 19977, Middlebrook 7H9 broth + ADC
# [8] = tested on: M. tuberculosis (H37Rv strain ATCC 27294); format: cell-based, Mycobacterium tuberculosis
# [9] = tested on: M. smegmatis (strain ATCC 700084); assay: MIC, M. smegmatis (BacTiter-Glo); format: cell-based, Mycobacterium smegmatis; conditions: strain ATCC 700084, Middlebrook 7H9 + ADC, 90% growth inhibition, 20 hours
# A. baumannii RpoB H535Q = assay: microbe, parasite or virus in culture; format: cell-based, Acinetobacter baumannii; conditions: for MIC: Acinetobacter baumannii, RPOBH535Q
# A. baumannii RpoB H535C = assay: microbe, parasite or virus in culture; format: cell-based, Acinetobacter baumannii; conditions: for MIC: Acinetobacter baumannii, RPOBH535C
# A. baumannii RpoB H535L = assay: microbe, parasite or virus in culture; format: cell-based, Acinetobacter baumannii; conditions: for MIC: Acinetobacter baumannii, RPOBH535L
# A. baumannii RpoB I581M = assay: microbe, parasite or virus in culture; format: cell-based, Acinetobacter baumannii
# [10] = tested on: A. baumannii RpoB H535Q/S521T; assay: microbe, parasite or virus in culture; format: cell-based, Acinetobacter baumannii
# A. baumannii RpoB S583L = assay: microbe, parasite or virus in culture; format: cell-based, Acinetobacter baumannii
# A. baumannii RpoB N527D = assay: microbe, parasite or virus in culture; format: cell-based, Acinetobacter baumannii
# A. baumannii RpoB L542F = assay: microbe, parasite or virus in culture; format: cell-based, Acinetobacter baumannii; conditions: for MIC: Acinetobacter baumannii, RPOBL542F
# S. aureus = assay: MIC by broth microdilution, S. aureus; format: cell-based, Staphylococcus aureus; conditions: cation adjusted Mueller Hinton broth, 35° C. 20 hours
compound,measurement,setting,value
CO[C@H]1/C=C/O[C@@]2(C)Oc3c(C)c(O)c4c(c3C2=O)C2=NC3(NC2=C(NC(=O)/C(C)=C\C=C\[C@H](C)[C@H](O)[C@@H](C)[C@@H](O)[C@@H](C)[C@H](OC(C)=O)[C@@H]1C)C4=O)C1CC2CC3CN(C2)C1 (some centres unmarked) [Compound 3B],MIC A. baumannii,A. baumannii,< 0.002 µg/mL
same,"A. baumannii MIC, WT",A. baumannii,≤0.002 µg/mL
same,MIC E. faecium,[1],0.03 µg/mL
same,MIC E. faecalis,[2],0.5 µg/mL
same,MIC S. epidermidis,[3],< 0.002 µg/mL
same,MIC S. pneumoniae,[4],< 0.002 µg/mL
same,MIC S. pyogenes,[5],< 0.002 µg/mL
same,MIC H. influenzae,[6],0.125 µg/mL
same,MIC M. abscessus,[7],8 µg/mL
same,MIC M. tuberculosis,[8],0.01 µg/mL
same,MIC M. smegmatis,[9],0.65 µg/mL
same,"A. baumannii MIC, RpoB H535Q",A. baumannii RpoB H535Q,≤0.002 µg/mL
same,"A. baumannii MIC, RpoB H535C",A. baumannii RpoB H535C,≤0.002 µg/mL
same,"A. baumannii MIC, RpoB H535L",A. baumannii RpoB H535L,0.016 µg/mL
same,"MIC, RpoB mutation I581M",A. baumannii RpoB I581M,≤0.002 µg/mL
same,"MIC, RpoB mutation H535Q/S521T",[10],1 µg/mL and 0.5 µg/mL
same,"MIC, RpoB mutation S583L",A. baumannii RpoB S583L,≤0.002 µg/mL
same,"MIC, RpoB mutation N527D",A. baumannii RpoB N527D,≤0.002 µg/mL
"CO[C@H]1/C=C/O[C@@]2(C)Oc3c(C)c(O)c4c(O)c(c(/C=N/N5CCN(C)CC5)c(O)c4c3C2=O)NC(=O)/C(C)=C\C=C\[C@H](C)[C@H](O)[C@@H](C)[C@@H](O)[C@@H](C)[C@H](OC(C)=O)[C@@H]1C [Rifampicin, reference compound]",MIC,"A. baumannii; Acinetobacter baumannii, Table 4, cation-adjusted Mueller Hinton broth (rifampicin), read-out: A. baumannii MIC, WT",8 µg/mL
same,MIC,"[1]; Enterococcus faecium, NCTC12204, read-out: MIC E. faecium",500 µg/mL
same,MIC,"[2]; Enterococcus faecalis, ATCC51575, read-out: MIC E. faecalis",1000 µg/mL
same,MIC,"[3]; Staphylococcus epidermidis, ATCC12228, read-out: MIC S. epidermidis",≤ 2 µg/mL
same,MIC,"[6]; Haemophilus influenzae, ATCC49247, read-out: MIC H. influenzae",250 µg/mL
same,MIC,"A. baumannii RpoB H535Q; read-out: A. baumannii MIC, RpoB H535Q, Table 4, cation-adjusted Mueller Hinton broth (rifampicin)",> 32 µg/mL
same,MIC,"A. baumannii RpoB H535Q; read-out: MIC, RpoB mutation H535Q, Table 5 part 1 c2, 1st H535Q isolate, cation-adjusted Mueller Hinton broth (rifampicin)",> 32 µg/mL
same,MIC,"A. baumannii RpoB H535Q; read-out: MIC, RpoB mutation H535Q, Table 5 part 1 c3, 2nd H535Q isolate, cation-adjusted Mueller Hinton broth (rifampicin)",> 32 µg/mL
same,MIC,"A. baumannii RpoB H535Q; read-out: MIC, RpoB mutation H535Q, Table 5 part 1 c4, 3rd H535Q isolate, cation-adjusted Mueller Hinton broth (rifampicin)",> 32 µg/mL
same,MIC,"A. baumannii RpoB H535C; read-out: A. baumannii MIC, RpoB H535C, Table 4, cation-adjusted Mueller Hinton broth (rifampicin)",> 32 µg/mL
same,MIC,"A. baumannii RpoB H535C; read-out: MIC, RpoB mutation H535C, Table 5 part 2 c2, 2nd H535C isolate, cation-adjusted Mueller Hinton broth (rifampicin)",> 32 µg/mL
same,MIC,"A. baumannii RpoB H535C; read-out: MIC, RpoB mutation H535C, Table 5 part 2 c3, 3rd H535C isolate, cation-adjusted Mueller Hinton broth (rifampicin)",> 32 µg/mL
same,MIC,"A. baumannii RpoB H535C; read-out: MIC, RpoB mutation H535C, Table 5 part 2 c4, 4th H535C isolate, cation-adjusted Mueller Hinton broth (rifampicin)",> 32 µg/mL
same,MIC,"A. baumannii RpoB H535L; read-out: A. baumannii MIC, RpoB H535L, Table 4, cation-adjusted Mueller Hinton broth (rifampicin)",> 32 µg/mL
same,MIC,"A. baumannii RpoB H535L; read-out: MIC, RpoB mutation H535L, Table 5 part 2 c5, 1st H535L isolate, cation-adjusted Mueller Hinton broth (rifampicin)",> 32 µg/mL
same,MIC,"A. baumannii RpoB H535L; read-out: MIC, RpoB mutation H535L, Table 5 part 2 c6, 2nd H535L isolate, cation-adjusted Mueller Hinton broth (rifampicin)",> 32 µg/mL
same,MIC,"A. baumannii RpoB H535L; read-out: MIC, RpoB mutation H535L, Table 5 part 3 c1, 3rd H535L isolate, cation-adjusted Mueller Hinton broth (rifampicin)",> 32 µg/mL
same,MIC,"A. baumannii RpoB H535L; read-out: MIC, RpoB mutation H535L, Table 5 part 3 c6, 4th H535L isolate, cation-adjusted Mueller Hinton broth (rifampicin)",> 32 µg/mL
same,MIC,"A. baumannii RpoB H535L; read-out: MIC, RpoB mutation H535L, Table 5 part 3 c7, 5th H535L isolate, cation-adjusted Mueller Hinton broth (rifampicin)",> 32 µg/mL
same,MIC,"A. baumannii RpoB I581M; Acinetobacter baumannii, RPOBI581M, read-out: MIC, RpoB mutation I581M",> 32 µg/mL
same,MIC,"A. baumannii RpoB L542F; read-out: MIC, RpoB mutation L542F, Table 5 part 3 c2, 1st L542F isolate, cation-adjusted Mueller Hinton broth (rifampicin)",8 µg/mL
same,MIC,"A. baumannii RpoB L542F; read-out: MIC, RpoB mutation L542F, Table 5 part 3 c3, 2nd L542F isolate, cation-adjusted Mueller Hinton broth (rifampicin)",8 µg/mL
same,MIC,"A. baumannii RpoB S583L; Acinetobacter baumannii, RPOBS583L, read-out: MIC, RpoB mutation S583L",> 32 µg/mL
same,MIC,"A. baumannii RpoB N527D; Acinetobacter baumannii, RPOBN527D, read-out: MIC, RpoB mutation N527D",> 32 µg/mL
"CO[C@H]1/C=C/O[C@@]2(C)Oc3c(C)c(O)c4c(c3C2=O)C2=NC3(CC5CCC(C3)N5)NC2=C(NC(=O)/C(C)=C\C=C\[C@H](C)[C@H](O)[C@@H](C)[C@@H](O)[C@@H](C)[C@H](OC(C)=O)[C@@H]1C)C4=O (single isomer, unassigned) [Compound 12B]",MIC S. aureus,S. aureus,0.016 µg/mL
same,MIC A. baumannii,A. baumannii,< 0.002 µg/mL
same,"A. baumannii MIC, WT",A. baumannii,≤0.002 µg/mL
same,MIC E. faecium,[1],0.03 µg/mL
same,MIC E. faecalis,[2],0.125 µg/mL
same,MIC S. epidermidis,[3],< 0.002 µg/mL
same,MIC S. pneumoniae,[4],< 0.002 µg/mL
same,MIC S. pyogenes,[5],< 0.002 µg/mL
same,MIC H. influenzae,[6],0.06 µg/mL
same,MIC M. abscessus,[7],8 µg/mL
same,MIC M. tuberculosis,[8],0.01 µg/mL
same,MIC M. smegmatis,[9],0.32 µg/mL
same,"A. baumannii MIC, RpoB H535Q","A. baumannii RpoB H535Q; Table 4, RPMI + FCS",≤0.002 µg/mL
same,"A. baumannii MIC, RpoB H535C","A. baumannii RpoB H535C; Table 4, RPMI + FCS",≤0.002 µg/mL
same,"A. baumannii MIC, RpoB H535L","A. baumannii RpoB H535L; Table 4, RPMI + FCS",0.03 µg/mL
same,"MIC, RpoB mutation I581M","A. baumannii RpoB I581M; Table 5 part 1 c1, clinical isolate, RPMI + 10% FCS",0.004 µg/mL
same,"MIC, RpoB mutation H535Q/S521T",[10],0.5 µg/mL and 1 µg/mL
same,"MIC, RpoB mutation L542F",A. baumannii RpoB L542F,0.002 µg/mL
same,"MIC, RpoB mutation S583L","A. baumannii RpoB S583L; Table 5 part 3 c4, clinical isolate, RPMI + 10% FCS",0.004 µg/mL
same,"MIC, RpoB mutation N527D","A. baumannii RpoB N527D; Table 5 part 3 c5, clinical isolate, RPMI + 10% FCS",≤0.002 µg/mL
